According to ChEMBL document CHEMBL1201862, “PubChem BioAssay data set” (2004):
Calls of active or inactive are those of the source.

Legend:
[1] = reduction of Shn3 3'UTR-driven luciferase in osteoblasts – cell-based, Clone20 osteoblasts, firefly luciferase, cherry-picked, dose response (AID 624132); format: functional;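 further: firefly luciferase luminescence from reporter carrying the Shn3 3'UTR in osteoblasts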
[2] = test system: P388/ADR; experiment: cells; format: functional; settings: Mus musculus
[3] = non-specific 3'UTR reporter inhibition in Clone20-Shn3RL – cell-based, Renilla luciferase, cherry-picked, counter-screen for Shn3 inhibitor project, dose response (AID 624133); format: functional
[4] = test system: SN12K1; experiment: cells; format: functional; settings: Homo sapiens
[5] = test system: P388; experiment: cells; format: functional; settings: Mus musculus
[6] = molecular target: T1, Protein skinhead-1 (Caenorhabditis elegans, UniProt P34707); format: functional
T1 sequence (P34707 whole entry): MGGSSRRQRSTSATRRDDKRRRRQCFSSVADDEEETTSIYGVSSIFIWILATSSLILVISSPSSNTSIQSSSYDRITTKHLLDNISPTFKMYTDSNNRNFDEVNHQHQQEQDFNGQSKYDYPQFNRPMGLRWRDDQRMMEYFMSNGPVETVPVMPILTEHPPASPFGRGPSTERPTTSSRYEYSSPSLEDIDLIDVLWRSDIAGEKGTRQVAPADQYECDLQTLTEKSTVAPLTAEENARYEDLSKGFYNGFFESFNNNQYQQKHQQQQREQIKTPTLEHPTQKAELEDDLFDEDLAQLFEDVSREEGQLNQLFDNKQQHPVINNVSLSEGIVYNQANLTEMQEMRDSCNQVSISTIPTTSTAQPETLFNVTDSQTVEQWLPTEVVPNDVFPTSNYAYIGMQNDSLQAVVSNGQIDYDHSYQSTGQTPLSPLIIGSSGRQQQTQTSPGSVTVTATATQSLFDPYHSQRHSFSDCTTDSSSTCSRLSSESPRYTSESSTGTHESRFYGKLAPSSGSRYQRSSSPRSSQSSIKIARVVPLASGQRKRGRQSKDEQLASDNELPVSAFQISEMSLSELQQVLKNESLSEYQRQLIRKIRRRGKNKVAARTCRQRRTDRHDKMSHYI

[7] = molecular target: Paired box protein Pax-8 (Homo sapiens, UniProt Q06710); experiment: PAX8 transcriptional activity inhibition in RMG-I – RMG-I cells, luciferase, cherry-pick, dose response (AID 687027); format: functional, cell-based;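 further: luciferase reporter driven by Pax8 target thyroperoxidase promoter measured by SteadyGlo luminescence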
[8] = molecular target: T2, COUP transcription factor 2 (Homo sapiens, UniProt P24468); experiment: Luminescence-based cell-based high throughput dose response assay to identify inhibitors of COUP-TFII (NR2F2).; format: functional;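 further: HEK293 cells transiently cotransfected with COUP-TFII expression vector and reporter; luciferase reporter luminescence driven by COUP-TFII from the pX2-168 reporter plasmid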
T2 sequence (P24468 whole entry): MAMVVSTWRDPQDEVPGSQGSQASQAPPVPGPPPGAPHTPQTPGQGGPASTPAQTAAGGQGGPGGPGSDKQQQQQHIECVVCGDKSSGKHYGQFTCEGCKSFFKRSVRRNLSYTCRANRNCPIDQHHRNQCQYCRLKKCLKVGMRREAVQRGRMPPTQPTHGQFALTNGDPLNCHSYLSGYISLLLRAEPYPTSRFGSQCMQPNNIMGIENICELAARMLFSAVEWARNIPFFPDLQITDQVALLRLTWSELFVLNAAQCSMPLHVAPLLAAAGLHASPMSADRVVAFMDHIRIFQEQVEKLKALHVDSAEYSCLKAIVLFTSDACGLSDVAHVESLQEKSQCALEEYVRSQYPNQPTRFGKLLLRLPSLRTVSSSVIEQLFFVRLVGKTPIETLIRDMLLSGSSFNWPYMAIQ

[9] = HEK-293T cell viability reduction – luminescence, B-cell screen hits, cytotoxicity control for BCR NF-kB inhibitor project, dose response (AID 489021); format: functional, cell-based;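 further: HEK-293T cells carrying an NF-kB luciferase reporter; cells exposed to compound for about 14 hours before viability readout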
[10] = molecular target: Endoplasmic reticulum aminopeptidase 1 (Homo sapiens, UniProt Q9NZ08); experiment: inhibition of human ERAP1 enzyme activity – biochemical, cherry-pick, set 2, plate reader, dose response (AID 743314)
[11] = Luminescence Cell-Based Dose Retest to Confirm Inhibitors of Cancer Stem Cells. [Related pubchem assays (depositor defined):AID2717, AID2721]; format: functional; settings: Homo sapiens
[12] = molecular target: Neurotensin receptor type 1 (Homo sapiens, UniProt P30989); format: functional;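 further: Image-based confirmatory dose-response assay measuring agonist activity at NTR1; NTR1-expressing U2OS osteosarcoma cells imaged for beta-arrestin GFP spot formation; agonist potency where compounds increase beta-arrestin recruitment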
[13] = test system: INS1; experiment: INS-1E survival protection against cytokine death – cell-based, luminescence, retest, dose response (AID 449756); format: functional; settings: Rattus norvegicus;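 further: cell death triggered by IL-1 beta plus TNF-alpha plus IFN-gamma mixture; protective hits raise ATP signal compared with cytokine alone wells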
[14] = OVCAR8 cell viability loss – plate reader, dry powder samples, PAX8 project, dose response (AID 743197); format: functional, cell-based; settings: OVCAR-8
[15] = growth inhibition of yeast DHODH-expressing 3D7 parasites – SYBR Green, dry powder samples, dose response (AID 1159570); format: functional, cell-based;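 further: parasite growth measured after 72 hours of compound exposure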
[16] = toxicity to human HepG2 hepatoma cells – cell-based, plate reader, dry powder samples, cytotoxicity control, dose response (AID 1159569); format: functional;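 further: inhibitor potency with signal falling toward the positive control level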
[17] = P. falciparum Dd2 growth inhibitors, dose response, SYBR Green, cherry-picked samples (AID 1159567); format: functional, cell-based
[18] = Dd2 malaria parasite growth inhibition potency – SYBR Green, dry powder samples, dose response (AID 1159566); format: functional, cell-based;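 further: potency for growth inhibition with lower SYBR green DNA signal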
[19] = growth inhibition of PfATP4-mutant resistant parasites – NITD609-resistant line, SYBR Green, dry powder, dose response (AID 1159571); format: functional, cell-based;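 further: parasites synchronized at ring stage by sorbitol before testing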

Chain of Endoplasmic reticulum aminopeptidase 1 (Q9NZ08 whole entry): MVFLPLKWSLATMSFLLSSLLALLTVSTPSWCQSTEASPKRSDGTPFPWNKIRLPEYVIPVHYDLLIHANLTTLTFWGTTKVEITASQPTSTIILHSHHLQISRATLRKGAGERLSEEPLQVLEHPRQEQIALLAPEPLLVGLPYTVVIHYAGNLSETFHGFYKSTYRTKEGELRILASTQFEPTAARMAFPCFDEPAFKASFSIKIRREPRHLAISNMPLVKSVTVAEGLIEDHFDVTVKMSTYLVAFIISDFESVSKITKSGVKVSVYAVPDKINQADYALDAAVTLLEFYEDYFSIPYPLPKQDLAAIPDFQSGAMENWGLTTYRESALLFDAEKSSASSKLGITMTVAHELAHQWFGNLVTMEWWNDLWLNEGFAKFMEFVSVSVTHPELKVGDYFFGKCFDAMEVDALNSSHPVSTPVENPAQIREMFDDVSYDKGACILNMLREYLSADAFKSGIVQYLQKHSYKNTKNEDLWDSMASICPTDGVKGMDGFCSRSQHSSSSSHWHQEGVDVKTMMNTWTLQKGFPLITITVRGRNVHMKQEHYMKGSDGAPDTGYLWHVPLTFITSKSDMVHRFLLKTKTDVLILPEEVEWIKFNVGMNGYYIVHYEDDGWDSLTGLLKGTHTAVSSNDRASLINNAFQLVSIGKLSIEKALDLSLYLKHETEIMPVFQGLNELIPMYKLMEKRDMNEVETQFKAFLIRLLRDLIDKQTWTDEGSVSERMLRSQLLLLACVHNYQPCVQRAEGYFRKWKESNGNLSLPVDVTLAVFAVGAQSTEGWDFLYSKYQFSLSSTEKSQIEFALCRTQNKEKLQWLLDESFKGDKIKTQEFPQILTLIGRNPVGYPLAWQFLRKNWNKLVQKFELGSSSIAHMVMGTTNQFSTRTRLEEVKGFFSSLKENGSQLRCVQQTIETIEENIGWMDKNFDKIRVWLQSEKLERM
Chain of Paired box protein Pax-8 (Q06710 whole entry): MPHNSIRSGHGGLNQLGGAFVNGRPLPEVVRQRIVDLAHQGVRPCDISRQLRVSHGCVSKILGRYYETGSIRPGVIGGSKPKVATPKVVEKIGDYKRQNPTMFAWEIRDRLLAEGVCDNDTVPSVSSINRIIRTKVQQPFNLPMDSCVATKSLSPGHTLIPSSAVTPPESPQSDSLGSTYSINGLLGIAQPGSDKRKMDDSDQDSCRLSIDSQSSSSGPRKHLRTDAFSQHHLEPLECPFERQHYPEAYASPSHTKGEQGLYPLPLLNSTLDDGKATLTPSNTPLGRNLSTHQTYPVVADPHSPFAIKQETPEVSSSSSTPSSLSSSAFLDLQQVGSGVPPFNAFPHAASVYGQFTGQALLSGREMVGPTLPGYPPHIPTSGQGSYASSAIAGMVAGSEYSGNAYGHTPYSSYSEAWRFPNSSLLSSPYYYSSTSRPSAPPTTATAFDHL
Chain of Neurotensin receptor type 1 (P30989 whole entry): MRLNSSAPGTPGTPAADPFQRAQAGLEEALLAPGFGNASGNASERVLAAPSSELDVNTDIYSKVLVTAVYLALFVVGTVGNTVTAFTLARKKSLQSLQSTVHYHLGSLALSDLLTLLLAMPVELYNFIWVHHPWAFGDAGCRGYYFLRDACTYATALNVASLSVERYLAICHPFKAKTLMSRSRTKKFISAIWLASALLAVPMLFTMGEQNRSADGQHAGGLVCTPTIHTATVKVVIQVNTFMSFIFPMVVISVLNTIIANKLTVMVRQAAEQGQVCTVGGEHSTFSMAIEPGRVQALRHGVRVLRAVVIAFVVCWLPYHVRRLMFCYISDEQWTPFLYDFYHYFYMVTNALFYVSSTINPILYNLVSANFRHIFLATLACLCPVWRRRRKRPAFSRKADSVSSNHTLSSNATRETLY

COC(=O)C12OCC34C(CC5C(C)=C(O)C(=O)CC5(C)C3C(O)C1O)OC(=O)C(OC(=O)C=C(C)C)C24 (stereo unspecified)
AC50 [1]: < 260 nM (active) | GI50 [2]: > 500000 nM (inactive) | AC50 [3]: 687 nM (active) | GI50 [4]: 277000 nM (inactive) | GI50 [5]: > 500000 nM (inactive) | IC50 [6]: 35700 nM (active) | AC50 [7]: < 260 nM (active) | IC50 [8]: 22.3 nM (active)

CC(C)(O)/C=C/C(=O)[C@](C)(O)C1[C@H](O)C[C@@]2(C)C3CC=C4C(C[C@H](O)[C@@H](O)C4(C)C)[C@]3(C)C(=O)C[C@]12C (stereo partly specified)
IC50 [9]: > 80000 nM (inactive)

N#Cc1c(N2CCNCC2)nc(-c2ccco2)c2c1CCCC2
AC50 [10]: 6110 nM (active)

CCCCNc1c(-c2ccc(OC)c(SC(C)CC)c2)nc2ccc(C)cn12 (stereo unspecified)
AC50 [11]: 6870 nM (active) | EC50 [12]: 15400 nM (active) | AC50 [13]: 4340 nM (active)

Cc1cc(C(=O)Nc2cccc3c2O[C@H](CN(C)Cc2ccc(Oc4ccccc4)cc2)[C@@H](C)CN([C@H](C)CO)C3=O)n(C)n1
AC50 [7]: 13200 nM (active) | AC50 [14]: > 70000 nM (inactive)

CC(=O)N1[C@@H]2c3ccc(/C=C/c4ccccc4)c(=O)n3C[C@H]1[C@H](CO)[C@H]2C(=O)N1CCOCC1
AC50 [10]: 3120 nM (active)

C[C@H](CO)N1C[C@H](C)[C@H](CN(C)C(=O)Nc2cc(F)ccc2F)Oc2cc(/C=C/c3ccccc3)ccc2S1(=O)=O
AC50 [15]: 2620 nM (active) | AC50 [16]: 86700 nM (active) | AC50 [17]: 1770 nM (active) | AC50 [18]: 962 nM (active) | AC50 [19]: 2060 nM (active)

COc1cccc(CN2CCCCN3[C@H](CO)[C@@H](c4ccc(C#Cc5cccnc5)cc4)[C@@H]3C2)c1
AC50 [15]: 2200 nM (active) | AC50 [16]: 22700 nM (active) | AC50 [17]: 1340 nM (active) | AC50 [18]: 427 nM (active) | AC50 [19]: 1210 nM (active)

N#C[C@H]1[C@@H](c2ccc(C#Cc3ccccc3F)cc2)[C@@H](CO)N1C(=O)C1CCC1
AC50 [15]: 779 nM (active) | AC50 [16]: 44900 nM (active) | AC50 [17]: 1570 nM (active) | AC50 [18]: 613 nM (active) | AC50 [19]: 1040 nM (active)
